# Where two headings read alike, the source gives them in different places.
# Assays:
# GSK-3β (AA 1-420) = target: T1, GSK-3β (AA 1-420) (Homo sapiens, UniProt P49841); assay: Ki determination for the inhibition of GSK-3 (coupled enzyme system); type: biochemical; details: 20 μM ATP, 300 μM peptide, 20 nM GSK-3β, 30° C
# T1 construct: GSK-3β (AA 1-420)
# Summary of the method: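 Pyruvate kinase/lactate dehydrogenase-coupled NADH assay with 20 nM GSK-3β (AA 1-420), 20 μM ATP, 300 μM phosphopeptide HSSPHQS(PO3H2)EDEEE in HEPES pH 7.5, 1.5% DMSO, 30 °C. Compound (12 points, 0.002–30 μM) preincubated 10 min before ATP start; Ki derived from 10-min rates versus inhibitor concentration.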
# Aurora-2 = target: T2, Aurora-2 (Homo sapiens, UniProt O14965); assay: Ki determination for the inhibition of Aurora-2 (coupled enzyme assay); type: biochemical; details: 70 nM Aurora-2, peptide LRRASLG, 30° C
# T2 sequence (O14965 1-403): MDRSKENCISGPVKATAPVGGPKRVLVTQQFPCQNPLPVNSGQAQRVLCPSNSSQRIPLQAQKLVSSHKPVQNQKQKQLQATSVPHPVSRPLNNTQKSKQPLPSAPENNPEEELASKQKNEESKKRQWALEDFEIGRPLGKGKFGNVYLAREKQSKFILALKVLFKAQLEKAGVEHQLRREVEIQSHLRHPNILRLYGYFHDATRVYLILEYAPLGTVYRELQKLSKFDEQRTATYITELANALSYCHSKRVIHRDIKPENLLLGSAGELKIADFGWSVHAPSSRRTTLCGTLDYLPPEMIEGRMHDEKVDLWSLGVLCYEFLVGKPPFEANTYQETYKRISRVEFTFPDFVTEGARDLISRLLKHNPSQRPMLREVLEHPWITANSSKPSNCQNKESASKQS
# Summary of the method: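 Ki came from reaction rates plotted against inhibitor concentration, with rates taken as A340 decrease over 5 min at 30° C. Enzyme (70 nM final) was added after 10 min compound preincubation; stock buffer held […], 800 μM LRRASLG, PK/LDH coupling, pH 7.5.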
# human Src kinase = target: T3, human Src kinase (Homo sapiens, UniProt P12931); assay: SRC inhibition assay (radioactivity-based or spectrophotometric assay); type: biochemical; details: assay A or B not specified
# T3 construct: full length recombinant human Src kinase; purchased Upstate Biotechnology 14-117; host or cells: baculo viral cells (baculovirus expression system)
# Procedure: The compounds were evaluated as inhibitors of human Src kinase using either a radioactivity-based assay or spectrophotometric assay. The compounds were assayed as inhibitors of full length recombinant human Src kinase (from Upstate Biotechnology, cat. no. 14-117) expressed and purified from baculo viral cells. […] P-0275). […] In a typical assay, all the reaction components with the exception of ATP were pre-mixed and aliquoted into assay plate wells. Inhibitors dissolved in DMSO were added to the wells to give a final DMSO concentration of 2.5%. The assay plate was incubated at 30° C. for 10 min before initiating the reaction with ^33P-ATP. After 20 min of reaction, the reactions were quenched with 150 μl of 10% trichloroacetic acid (TCA) containing 20 mM Na3PO4. The quenched samples were then transferred to a 96-well filter plate (Whatman, UNI-Filter GF/F Glass Fiber Filter, cat no. 7700-3310) installed on a filter plate vacuum manifold. Filter plates were washed four times with 10% TCA containing 20 mM Na3PO4 and then 4 times with methanol. 200 μl of scintillation fluid was then added to each well. The plates were sealed and the amount of radioactivity associated with the filters was quantified on a TopCount scintillation counter. The radioactivity incorporated was plotted as a function of the inhibitor concentration. The data was fitted to a competitive inhibition kinetics model to get the Ki for the compound. The ADP produced from ATP by the human recombinant Src kinase-catalyzed phosphorylation of poly Glu-Tyr substrate was quanitified using a coupled enzyme assay (Fox et al (1998) Protein Sci 7, 2249). In this assay one molecule of NADH is oxidised to NAD for every molecule of ADP produced in the kinase reaction. The disappearance of NADH can be conveniently followed at 340 nm. […] In a typical assay, all the reaction components with the exception of ATP were pre-mixed and aliquoted into assay plate wells. Inhibitors dissolved in DMSO were added to the wells to give a final DMSO concentration of 2.5%. […] The absorbance change at 340 nm with time, the rate of the reaction, was monitored on a molecular devices plate reader. The data of rate as a function of the inhibitor concentration was fitted to compettive inhibition kinetics model to get the Ki for the compound.
# T3 sequence (P12931 whole entry): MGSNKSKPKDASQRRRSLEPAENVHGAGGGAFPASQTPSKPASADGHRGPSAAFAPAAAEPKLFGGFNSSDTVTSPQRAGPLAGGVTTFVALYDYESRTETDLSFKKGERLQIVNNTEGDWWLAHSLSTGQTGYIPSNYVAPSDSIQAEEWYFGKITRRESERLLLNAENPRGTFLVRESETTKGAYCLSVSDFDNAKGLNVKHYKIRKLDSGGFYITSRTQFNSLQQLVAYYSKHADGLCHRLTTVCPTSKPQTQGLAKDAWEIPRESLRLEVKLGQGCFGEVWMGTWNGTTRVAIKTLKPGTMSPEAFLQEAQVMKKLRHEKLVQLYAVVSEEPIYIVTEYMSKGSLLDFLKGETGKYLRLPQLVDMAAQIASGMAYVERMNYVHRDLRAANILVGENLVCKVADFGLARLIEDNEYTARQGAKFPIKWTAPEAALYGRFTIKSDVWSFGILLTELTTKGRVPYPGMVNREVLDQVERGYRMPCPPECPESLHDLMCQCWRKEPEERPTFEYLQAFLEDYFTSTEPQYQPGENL
# T1 sequence (P49841 whole entry, the tested form may be a part): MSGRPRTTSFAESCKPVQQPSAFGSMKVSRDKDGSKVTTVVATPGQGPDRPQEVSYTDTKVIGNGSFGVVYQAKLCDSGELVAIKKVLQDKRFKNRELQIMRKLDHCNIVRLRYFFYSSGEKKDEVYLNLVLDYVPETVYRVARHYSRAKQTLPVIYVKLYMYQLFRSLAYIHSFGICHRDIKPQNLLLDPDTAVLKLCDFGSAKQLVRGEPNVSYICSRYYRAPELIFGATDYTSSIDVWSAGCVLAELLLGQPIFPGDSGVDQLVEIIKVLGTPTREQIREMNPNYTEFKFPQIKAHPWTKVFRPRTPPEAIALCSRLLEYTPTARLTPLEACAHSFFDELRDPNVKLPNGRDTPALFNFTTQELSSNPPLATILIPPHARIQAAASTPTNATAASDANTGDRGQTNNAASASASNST
Compound,Ki (GSK-3β (AA 1-420)) [nM],Ki (Aurora-2) [nM],Ki (human Src kinase; read-out: Ki value on SRC) [nM],melting point [°C],Ki (human Src kinase; read-out: Ki value for SRC) [nM]
"Cc1cc(Nc2nc(-c3ccccc3)nc3ccccc23)[nH]n1 [III-31, (5-Methyl-2H-pyrazol-3-yl)-(2-phenyl-quinazolin-4-yl)-amine]",< 100,< 100,< 100,–,–
"Cc1cc(Nc2nc(-c3ccc(I)cc3)nc3ccccc23)[nH]n1 [III-32, [2-(4-Iodophenyl)-quinazolin-4-yl]-(5-methyl-2H-pyrazol-3-yl)-amine]",–,< 100,< 100,–,–
"Cc1cc(Nc2nc(-c3ccc(Cl)c(Cl)c3)nc3ccccc23)[nH]n1 [III-33, [2-(3,4-Dichlorophenyl)-quinazolin-4-yl]-(5-methyl-2H-pyrazol-3-yl)-amine]",< 100,< 100,< 100,274,–
"Cc1cc(Nc2nc(-c3ccc(Br)cc3)nc3ccccc23)[nH]n1 [III-34, [2-(4-Bromophenyl)-quinazolin-4-yl]-(5-methyl-2H-pyrazol-3-yl)-amine]",< 100,< 100,< 100,262 to 265,–
"Cc1cc(Nc2nc(-c3ccc(Cl)cc3)nc3ccccc23)[nH]n1 [III-35, [2-(4-Chlorophenyl)-quinazolin-4-yl]-(5-methyl-2H-pyrazol-3-yl)-amine]",< 100,< 100,< 100,> 300,–
"Cc1cc(Nc2nc(-c3ccc(C#N)cc3)nc3ccccc23)[nH]n1 [III-37, [2-(4-Cyanophenyl)-quinazolin-4-yl]-(5-methyl-2H-pyrazol-3-yl)-amine]",< 100,< 100,< 100,263,–
"Cc1cc(Nc2nc(-c3cccc(I)c3)nc3ccccc23)[nH]n1 [III-38, [2-(3-Iodophenyl)-quinazolin-4-yl]-(5-methyl-2H-pyrazol-3-yl)-amine]",< 100,< 100,< 100,234 to 235,–
"CCSc1ccc(-c2nc(Nc3cc(C)n[nH]3)c3ccccc3n2)cc1 [III-39, [2-(4-Ethylsulfanylphenyl)-quinazolin-4-yl]-(5-methyl-2H-pyrazol-3-yl)-amine]",< 100,< 100,< 100,229 to 231,–
"Clc1ccc(-c2nc(Nc3cc(C4CC4)n[nH]3)c3ccccc3n2)cc1 [III-42, [2-(4-Chlorophenyl)-quinazolin-4-yl]-(5-cyclopropyl-2H-pyrazol-3-yl)-amine]",< 100,< 100,< 100,–,–
"Cc1cc(Nc2nc(-c3ccc(N(C)C)cc3)nc3ccccc23)[nH]n1 [III-44, [2-(4-Dimethylaminophenyl)-quinazolin-4-yl]-(5-methyl-2H-pyrazol-3-yl)-amine]",100 to 1000,< 100,< 100,–,–
"COc1cccc(-c2nc(Nc3cc(C)n[nH]3)c3ccccc3n2)c1 [III-45, [2-(3-Methoxyphenyl)-quinazolin-4-yl]-(5-methyl-2H-pyrazol-3-yl)-amine]",< 100,< 100,< 100,226,–
"Cc1cc(Nc2nc(-c3ccc(-c4ccccc4)cc3)nc3ccccc23)[nH]n1 [III-47, (2-Biphenyl-4-yl-quinazolin-4-yl)-(5-methyl-2H-pyrazol-3-yl)-amine]",< 100,< 100,< 100,–,–
"C#Cc1ccc(-c2nc(Nc3cc(C)n[nH]3)c3ccccc3n2)cc1 [III-48, [2-(4-Ethynylphenyl)-quinazolin-4-yl]-(5-methyl-2H-pyrazol-3-yl)-amine]",< 100,< 100,< 100,–,–
"C#Cc1cccc(-c2nc(Nc3cc(C)n[nH]3)c3ccccc3n2)c1 [III-49, [2-(3-Ethynylphenyl)-quinazolin-4-yl]-(5-methyl-2H-pyrazol-3-yl)-amine]",< 100,< 100,< 100,204 to 207,–
"NCCCc1cc(Nc2nc(-c3ccccc3)nc3ccccc23)[nH]n1 [III-79, [5-(3-Aminoprop-1-yl)-2H-pyrazol-3-yl]-(2-phenyl-quinazolin-4-yl)-amine]",–,1000 to 20000,–,205 to 207,1000 to 6000
"N#Cc1cn[nH]c1Nc1nc(-c2ccccc2)nc2ccccc12 [III-103, (4-Cyano-2H-pyrazol-3-yl)-(2-phenyl-quinazolin-4-yl)-amine]",1000 to 20000,1000 to 20000,–,> 250,–
"Cc1cc(Nc2nc(N3CCNCC3)nc3ccccc23)[nH]n1 [III-105, (5-Methyl-2H-pyrazol-3-yl)-(2-piperazin-1-yl-quinazolin-4-yl)-amine]",100 to 1000,100 to 1000,–,179 to 181,–
"Cc1cc(Nc2nc(N3CCC(C)CC3)nc3ccccc23)[nH]n1 [III-106, [2-(4-Methylpiperidin-1-yl)-quinazolin-4-yl]-(5-methyl-2H-pyrazol-3-yl)-amine]",< 100,< 100,–,148 to 150,–
"Cc1cc(Nc2nc(N3CCN(C)CC3)nc3ccccc23)[nH]n1 [III-107, [2-(4-Methylpiperazin-1-yl)-quinazolin-4-yl]-(5-methyl-2H-pyrazol-3-yl)-amine]",100 to 1000,100 to 1000,–,105 to 107,–
Cc1cc(Nc2nc(N3CCC(CCO)CC3)nc3ccccc23)[nH]n1 [III-110],100 to 1000,< 100,–,175,–
"Cc1cc(Nc2nc(N3CCC4(CC3)OCCO4)nc3ccccc23)[nH]n1 [III-112, [2-(1,4-Dioxa-8-aza-spiro[4,5]dec-8-yl)-quinazolin-4-yl]-(5-methyl-2H-pyrazol-3-yl)-amine]",100 to 1000,< 100,–,191,–
"Cc1cc(Nc2nc(N3CCC(O)CC3)nc3ccccc23)[nH]n1 [III-114, [2-(4-Hydroxypiperidin-1-yl)-quinazolin-4-yl]-(5-methyl-2H-pyrazol-3-yl)-amine]",100 to 1000,< 100,–,123,–
"c1ccc2c(c1)CN(c1nc(Nc3cc(C4CC4)n[nH]3)c3ccccc3n1)C2 [III-116, (5-Cyclopropyl-2H-pyrazol-3-yl)-[2-(1,3-dihydro-isoindol-2-yl)-quinazolin-4-yl]-amine]",< 100,< 100,–,237,–
"c1ccc2c(c1)CCN2c1nc(Nc2cc(C3CC3)n[nH]2)c2ccccc2n1 [III-119, (5-Cyclopropyl-2H-pyrazol-3-yl)-[2-(2,3-dihydro-indol-1-yl)-quinazolin-4-yl]-amine]",< 100,< 100,–,150 to 153,–
"c1ccc2c(c1)CCCN2c1nc(Nc2cc(C3CC3)n[nH]2)c2ccccc2n1 [III-121, (5-Cyclopropyl-2H-pyrazol-3-yl)-[2-(3,4-dihydro-2H-quinolin-1-yl)-quinazolin-4-yl]-amine]",< 100,< 100,–,137 to 145,–
"c1ccc(-c2nc(Nc3ncn[nH]3)c3ccccc3n2)cc1 [IX-154, (2-Phenyl-quinazolin-4-yl)-(2H-[1,2,4]triazol-3-yl)-amine]",100 to 1000,1000 to 20000,–,266 to 267,–

# — patent US6610677B2, “Pyrazole compounds useful as protein kinase inhibitors” (Vertex Pharmaceuticals Incorporated, priority 2000, dated 2003)
